In patent publication US11974981B2, “Methods and compositions for treating endometriosis and endometriosis associated symptoms” (The Board of Trustees of the Leland Stanford Junior …, priority 2017, dated 2024):
Entries after “also recorded” stand apart in the source; their conditions may differ.

What was measured:
wild type C57/BL6 mice = experiment: mouse surgical model of endometriosis, endometrial cyst area, wild type mice; format: in vivo; details: vs DMSO
Excerpt: (§1) FIG. 2A-2C. Relative to wild type mice, ALDH2*2 mice develop larger endometrial cysts by 3 days after endometriosis surgery. FIG. 2A In a mouse surgical model of endometriosis, three (2 mm×2 mm) uterine horn auto transplants are sutured onto cascading mesenteric arteries which in turn since located outside the uterus develop cysts in the abdomen. FIG. 2B Female wild type (C57/BL6) and ALDH2*2 knock-in mice on the same genetic background 8-10 weeks of age were induced with endometriosis and sacrificed 1, 3, or 28 days later. Endometrial cysts were collected and cyst area was measured (length×width). FIG. 2C Average cyst area was calculated for each group (wild type: blue, ALDH2*2: red) of mice at day 1, 3, and 28. Data are presented as mean±SEM, n=6 mice/group.
(§2) FIG. 3A-3D. Alda-1 reduces endometrial cyst size 3 days and 28 days after endometriosis induction. FIG. 3A. […] FIG. 3B. […]
(§3) Briefly, mice were anesthetized with isoflurane (1-3%) and an off-midline (left side) incision made through the skin and muscle layer to expose the pelvic and abdominal organs. […] On day 1, 3, or 28 after endometriosis induction, mice were sacrificed, endometrial cyst length and width measured to calculate cyst area, and then the average cyst area per group determined.

[1] = system: female Sprague-Dawley rats; experiment: acetaldehyde-induced vaginal hyperalgesia, escape response to vaginal balloon distention; format: in vivo, rat; details: Alda-1 1 mg/kg i.p. alone, in the absence of the noxious stimulus
Excerpt: FIG. 1A-1C. Alda-1 mitigates acetaldehyde-induced vaginal hyperalgesia in rats. FIG. 1A Five female Sprague-Dawley rats initially weighing 150-175 g were trained over a period of ˜4 weeks to terminate an escape response from the noxious stimuli produced by a balloon inflated in the vagina. Top image: Rats trained to be accustomed to the testing chamber. Bottom image: The escape response assessed by the rat poking its head into a tube. This response in turn breaks an infrared beam and causes the vaginal balloon to deflate. […] The shaded area is calculated as the area under the curve. n=5 rats/volume FIG. 1C Histogram of vaginal escape response expressed as the area under the curve calculated using standard trapezoid methods. […]
Alda and endonetriosis: Although rodent inflammatory pain models such as carageenan and CFA may represent some aspects of endometriosis, there is a validated rat model of endometriosis-associated pain, which produces signs and painful symptoms similar to those in women (S. McAllister, K. McGinty, D. Resuehr, K. Berkley. Endometriosis-induced vaginal hyperalgesia in the rat: Role of the ectopic growths and their innervation. Pain. 147: 255-264 (2009)). […] The rat is then monitored to determine an escape response, which is assessed by the rodent breaking an infrared beam with its nose; this, in turn, causes the inflated balloon in the vagina to deflate (FIG. 1A). […]

[2] = system: rodent models of inflammatory pain; details: earlier work of the inventors; cited from earlier work
[3] = system: homozygous ALDH2*2 knock-in mice; experiment: mouse surgical model of endometriosis, endometrial cyst area, ALDH2*2 knock-in mice; format: in vivo; details: ALDH2*2 mice, vs DMSO
Excerpt: as §1, §2, §3

[4] = Alda-1 5 mg/kg subcutaneous Alzet pump for 3 days

O=C(NCc1ccc2c(c1)OCO2)c1c(Cl)cccc1Cl [Alda-1, N-(1,3-benzodioxol-5-ylmethyl)-2,6-dichlorobenzamide]
average endometrial cyst area (wild type C57/BL6 mice; [4]): significant reduction
average endometrial cyst area (wild type C57/BL6 mice; Alda-1 5 mg/kg subcutaneous Alzet pump for 28 days, 5 mg/kg): significant reduction; also recorded: significantly reduced
vaginal escape response (area under the curve), effect of compound alone [1]: No effect
pain thresholds [2]: increases pain thresholds
average endometrial cyst area [3, 4]: significant reduction; also recorded: significantly reduced
average endometrial cyst area ([3]; Alda-1 5 mg/kg subcutaneous Alzet pump for 28 days): significant reduction; also recorded: significantly reduced
